The target of the assay is T1, APOL1 G1 Protein (Homo sapiens, UniProt O14791, I384M/S342G).
T1 sequence (O14791 28-398 S342G/I384M): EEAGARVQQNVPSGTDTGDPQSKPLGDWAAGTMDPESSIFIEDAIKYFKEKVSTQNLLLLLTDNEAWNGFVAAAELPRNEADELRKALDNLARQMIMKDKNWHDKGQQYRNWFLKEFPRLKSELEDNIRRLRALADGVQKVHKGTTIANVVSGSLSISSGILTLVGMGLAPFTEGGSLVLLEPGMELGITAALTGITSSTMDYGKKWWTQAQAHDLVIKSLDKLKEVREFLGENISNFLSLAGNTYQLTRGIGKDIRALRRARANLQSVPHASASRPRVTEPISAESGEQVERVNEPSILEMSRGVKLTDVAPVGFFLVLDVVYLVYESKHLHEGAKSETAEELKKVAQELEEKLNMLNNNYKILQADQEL
Description: Trypanosoma brucei brucei lysis assay using APOL1 recombinant protein (AlamarBlue viability). Type of assay: cell-based. As to conditions: read-out: Trypanosoma Assay (IC50). The gist of the method: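 Bloodstream-form T. b. brucei Lister 427 VSG 221, 120,000 parasites/well in phenol red-free, FBS-free medium, lysed by recombinant APOL1 G1 with compound (10-point dose response, 0.1% DMSO final). Viability read by AlamarBlue fluorescence against a parasite standard curve.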
On the technique in general: Resazurin is reduced to fluorescent resorufin, in cell work by metabolically active cells.

[1] abbreviates: Trypanosoma brucei brucei lysis, recombinant APOL1, AlamarBlue.

Where two headings read alike, the source gives them in different places. Where only a bound is given, the exact number is not on record here.

One may read the IC50 as the point on the concentration scale where inhibition reaches its midpoint.

In the case of `CC1(O)CN(C(=O)[C@H]2C[C@H](c3c(-c4ccc(F)cc4)[nH]c4c(F)cc(F)cc43)C2)C1` [Compound 74], the 50% inhibitory concentration (IC50) under setting [1] was 250 to 1000 nM.
On the same count and under the same terms, the result for `CN1CCN(C(=O)CNC(=O)[C@H]2C[C@H](c3c(-c4ccc(F)cc4)[nH]c4c(F)cc(F)cc43)C2)CC1` [Compound 67] reads over 1000 nM.
Same read-out and setting: for `NC(=O)CNC(=O)[C@H]1C[C@H](c2c(-c3ccc(F)cc3)[nH]c3c(F)cc(F)cc32)C1` [Compound 1, N-(2-amino-2-oxo-ethyl)-3-[5,7-difluoro-2-(4-fluorophenyl)-1H-indol-3-yl]cyclobutanecarboxamide] the value was under 250 nM.
On the same count and under the same terms, for `CN(CC(N)=O)C(=O)[C@H]1C[C@H](c2c(-c3ccc(F)cc3)[nH]c3c(F)cc(F)cc32)C1` [Compound 51] the value was 250 to 1000 nM; for `NC(=O)C1(NC(=O)[C@H]2C[C@H](c3c(-c4ccc(F)cc4)[nH]c4c(F)cc(F)cc43)C2)CC1` [Compound 56], 250 to 1000 nM.
As for `O=C(NCC1(O)CCCCC1)[C@H]1C[C@H](c2c(-c3ccc(F)cc3)[nH]c3c(F)cc(F)cc32)C1` [Compound 80], the IC50 under setting [1] is over 1000 nM.
On to `O=C1NCCC1NC(=O)[C@H]1C[C@H](c2c(-c3ccc(F)cc3)[nH]c3c(F)cc(F)cc32)C1` (stereo partly drawn) [Compound 2], for which the IC50 under setting [1] is under 250 nM.
On to `NCC(O)CNC(=O)[C@H]1C[C@H](c2c(-c3ccc(F)cc3)[nH]c3c(F)cc(F)cc32)C1` (stereo partly drawn) [Compound 3], for which the IC50 under setting [1] was in the range of 250 to 1000 nM.
The same measure, in the same setting: for `Cc1cc(CNC(=O)[C@H]2C[C@H](c3c(-c4ccc(F)cc4)[nH]c4c(F)cc(F)cc43)C2)nn1C` [Compound 73] the value was 250 to 1000 nM.
Regarding `NC(=O)CNC[C@H]1C[C@@H](c2c(-c3ccc(F)cc3)[nH]c3c(F)cc(F)cc32)C1` [Compound 447], the IC50 (Table 24, Compounds 287 to 465) is under 250 nM.
As to `C[C@@H](NC(=O)[C@H]1C[C@H](c2c(-c3ccc(F)cc3)[nH]c3c(F)cc(F)cc32)C1)C(=O)N(C)C` [Compound 61], the IC50 under setting [1] is over 1000 nM.
On to `CC(C)(O)C1CN(C(=O)[C@H]2C[C@H](c3c(-c4ccc(F)cc4)[nH]c4c(F)cc(F)cc43)C2)C1` [Compound 86], for which the half-maximal inhibitory concentration (IC50) under setting [1] was over 1000 nM.
For `Cn1cnc(CNC(=O)[C@H]2C[C@H](c3c(-c4ccc(F)cc4)[nH]c4c(F)cc(F)cc43)C2)c1` [Compound 48], the 50% inhibitory concentration (IC50) under setting [1] is under 250 nM.
Still for that read-out and setting: the result for `CN(CC(C)(C)O)C(=O)[C@H]1C[C@H](c2c(-c3ccc(F)cc3)[nH]c3c(F)cc(F)cc32)C1` [Compound 93] reads over 1000 nM.
For the compound `O=C(NCC1CC(F)(F)C1)[C@H]1C[C@H](c2c(-c3ccc(F)cc3)[nH]c3c(F)cc(F)cc32)C1` [Compound 41], the IC50 under setting [1] is over 1000 nM.
Still for that read-out and setting: for `Cn1ccc(CNC(=O)[C@H]2C[C@H](c3c(-c4ccc(F)cc4)[nH]c4c(F)cc(F)cc43)C2)n1` [Compound 71] the value was under 250 nM; for `CC(N)(C(=O)NC(=O)[C@H]1C[C@H](c2c(-c3ccc(F)cc3)[nH]c3c(F)cc(F)cc32)C1)C(F)(F)F` (stereo partly drawn) [Compound 60], 250 to 1000 nM; for `O=C(NC1(CO)CC1)[C@H]1C[C@H](c2c(-c3ccc(F)cc3)[nH]c3c(F)cc(F)cc32)C1` [Compound 47], under 250 nM.
Still for that read-out and setting: for `CC(NC(=O)[C@H]1C[C@H](c2c(-c3ccc(F)cc3)[nH]c3c(F)cc(F)cc32)C1)c1ccn[nH]1` (mixture of isomers) [Compound 81] the value was 250 to 1000 nM; for `O=C(NC(CO)CF)[C@H]1C[C@H](c2c(-c3ccc(F)cc3)[nH]c3c(F)cc(F)cc32)C1` (stereo partly drawn) [Compound 78], under 250 nM; for `C[C@H](O)CNC(=O)[C@H]1C[C@H](c2c(-c3ccc(F)cc3)[nH]c3c(F)cc(F)cc32)C1` [Compound 82], 250 to 1000 nM.
Same read-out and setting: for `COCC1(NC(=O)[C@H]2C[C@H](c3c(-c4ccc(F)cc4)[nH]c4c(F)cc(F)cc43)C2)CC1` [Compound 54] the value was under 250 nM.
Turning to `O=C([C@H]1C[C@H](c2c(-c3ccc(F)cc3)[nH]c3c(F)cc(F)cc32)C1)N1CCC(O)(CO)CC1` [Compound 87], the concentration for half-maximal inhibition (IC50) under setting [1] was over 1000 nM.
Same read-out and setting: for `NCCCNC(=O)[C@H]1C[C@H](c2c(-c3ccc(F)cc3)[nH]c3c(F)cc(F)cc32)C1` [Compound 4] the value was under 250 nM; for `NC(=O)C1CCCCN1C(=O)[C@H]1C[C@H](c2c(-c3ccc(F)cc3)[nH]c3c(F)cc(F)cc32)C1` (stereo partly drawn) [Compound 92], 250 to 1000 nM; for `O=C([C@H]1C[C@H](c2c(-c3ccc(F)cc3)[nH]c3c(F)cc(F)cc32)C1)N(CCO)C1CC1` [Compound 52], 250 to 1000 nM.
In the case of `CC(NC(=O)[C@H]1C[C@H](c2c(-c3ccc(F)cc3)[nH]c3c(F)cc(F)cc32)C1)c1ccn(C)n1` (mixture of isomers) [Compound 75], the IC50 under setting [1] was under 250 nM.
In the case of `NC(=O)[C@@H]1CCCN1C(=O)[C@H]1C[C@H](c2c(-c3ccc(F)cc3)[nH]c3c(F)cc(F)cc32)C1` [Compound 88], the IC50 under setting [1] was over 1000 nM.
On the same count and under the same terms, the result for `C[C@H](NC(=O)[C@H]1C[C@H](c2c(-c3ccc(F)cc3)[nH]c3c(F)cc(F)cc32)C1)C(=O)N(C)C` [Compound 65] reads 250 to 1000 nM; that for `O=C(NCC1(CO)COC1)[C@H]1C[C@H](c2c(-c3ccc(F)cc3)[nH]c3c(F)cc(F)cc32)C1` [Compound 83], over 1000 nM; that for `O=C(NCCO)[C@H]1C[C@H](c2c(-c3ccc(F)cc3)[nH]c3c(F)cc(F)cc32)C1` [Compound 46, 3-[5,7-difluoro-2-(4-fluorophenyl)-1H-indol-3-yl]-N-(2-hydroxyethyl)cyclobutanecarboxamide], under 250 nM.
Same read-out and setting: the result for `O=C([C@H]1C[C@H](c2c(-c3ccc(F)cc3)[nH]c3c(F)cc(F)cc32)C1)N1C[C@@H](CO)OCC12CC2` [Compound 57] reads over 1000 nM.
Same read-out and setting: the result for `CC(NC(=O)[C@H]1C[C@H](c2c(-c3ccc(F)cc3)[nH]c3c(F)cc(F)cc32)C1)c1ccnn1C` (mixture of isomers) [Compound 76] reads over 1000 nM; that for `O=C(CNC(=O)[C@H]1C[C@H](c2c(-c3ccc(F)cc3)[nH]c3c(F)cc(F)cc32)C1)NC1CC1` [Compound 50], over 1000 nM; that for `CN(CC1(CO)CC1)C(=O)[C@H]1C[C@H](c2c(-c3ccc(F)cc3)[nH]c3c(F)cc(F)cc32)C1` [Compound 49], over 1000 nM.
For `CCNC(=O)[C@@H]1CCCN1C(=O)[C@H]1C[C@H](c2c(-c3ccc(F)cc3)[nH]c3c(F)cc(F)cc32)C1` [Compound 64], the IC50 under setting [1] is over 1000 nM.
Still for that read-out and setting: the result for `O=C(NC1(CCO)CC1)[C@H]1C[C@H](c2c(-c3ccc(F)cc3)[nH]c3c(F)cc(F)cc32)C1` [Compound 59] reads 250 to 1000 nM.
`CC1C[C@H](NC(=O)[C@H]2C[C@H](c3c(-c4ccc(F)cc4)[nH]c4c(F)cc(F)cc43)C2)C(=O)N1` (mixture of isomers) [Compound 84]: the concentration for half-maximal inhibition (IC50) under setting [1] is 250 to 1000 nM.
For the compound `O=C(NCC1(O)CCCC1)[C@H]1C[C@H](c2c(-c3ccc(F)cc3)[nH]c3c(F)cc(F)cc32)C1` [Compound 69], the IC50 under setting [1] is over 1000 nM.
The same measure, in the same setting: the result for `CN1CC(CNC(=O)[C@H]2C[C@H](c3c(-c4ccc(F)cc4)[nH]c4c(F)cc(F)cc43)C2)CC1=O` (stereo partly drawn) [Compound 70] reads over 1000 nM; that for `CC(=O)NC1CCCN(C(=O)[C@H]2C[C@H](c3c(-c4ccc(F)cc4)[nH]c4c(F)cc(F)cc43)C2)C1` (stereo partly drawn) [Compound 91], over 1000 nM.
Regarding `NC(=O)CC1CC(c2c(-c3ccc(F)cc3)[nH]c3c(F)cc(F)cc23)C1` (stereo not drawn) [Compound 455], the IC50 (Table 24, Compounds 287 to 465) was under 250 nM.
Regarding `O=C1CC(NC(=O)[C@H]2C[C@H](c3c(-c4ccc(F)cc4)[nH]c4c(F)cc(F)cc43)C2)CN1` (mixture of isomers) [Compound 44], the half-inhibitory concentration (IC50) under setting [1] is over 1000 nM.
On to `NC(=O)CNCC1CC(c2c(-c3ccc(F)cc3)[nH]c3c(F)cc(F)cc23)C1` (stereo not drawn) [Compound 433, 2-(((3-(5,7-difluoro-2-(4-fluorophenyl)-1H-indol-3-yl)cyclobutyl)methyl)amino)acetamide], for which the half-maximal inhibitory concentration (IC50) (Table 24, Compounds 287 to 465) is under 250 nM.
Turning to `O=C(NCC1CCOCC1)[C@H]1C[C@H](c2c(-c3ccc(F)cc3)[nH]c3c(F)cc(F)cc32)C1` [Compound 42], under setting [1], the IC50 was over 1000 nM.
Same read-out and setting: the result for `O=C([C@H]1C[C@H](c2c(-c3ccc(F)cc3)[nH]c3c(F)cc(F)cc32)C1)N1CCCCC1CCO` (stereo partly drawn) [Compound 94] reads over 1000 nM.
Take `CC(O)CN(C)C(=O)[C@H]1C[C@H](c2c(-c3ccc(F)cc3)[nH]c3c(F)cc(F)cc32)C1` (stereo partly drawn) [Compound 90]: under setting [1], the concentration for half-maximal inhibition (IC50) fell in the range of 250 to 1000 nM.
In the case of `O=C(OC1CN(C(=O)[C@H]2C[C@H](c3c(-c4ccc(F)cc4)[nH]c4c(F)cc(F)cc43)C2)C1)C1CCOCC1` [Compound 85], the IC50 under setting [1] was under 250 nM.
Same read-out and setting: the result for `CN(C(=O)[C@H]1C[C@H](c2c(-c3ccc(F)cc3)[nH]c3c(F)cc(F)cc32)C1)C1(CO)CC1` [Compound 58] reads 250 to 1000 nM.
As to `CN(CCO)C(=O)[C@H]1C[C@H](c2c(-c3ccc(F)cc3)[nH]c3c(F)cc(F)cc32)C1` [Compound 79], the 50% inhibitory concentration (IC50) under setting [1] is under 250 nM.
Turning to `COCc1cc(CNC(=O)[C@H]2C[C@H](c3c(-c4ccc(F)cc4)[nH]c4c(F)cc(F)cc43)C2)n[nH]1` [Compound 72], the IC50 under setting [1] is over 1000 nM.
As for `CC(C)(NC(=O)[C@H]1C[C@H](c2c(-c3ccc(F)cc3)[nH]c3c(F)cc(F)cc32)C1)C(=O)N1CCOCC1` [Compound 66], the concentration for half-maximal inhibition (IC50) under setting [1] is over 1000 nM.
Still for that read-out and setting: the result for `O=C1NCC[C@H]1NC(=O)[C@H]1C[C@H](c2c(-c3ccc(F)cc3)[nH]c3c(F)cc(F)cc32)C1` [Compound 45] reads under 250 nM; that for `CC(C)N1CCN(C(=O)[C@H]2C[C@H](c3c(-c4ccc(F)cc4)[nH]c4c(F)cc(F)cc43)C2)CC1=O` [Compound 63], over 1000 nM.

(Values after patent publication US12116343B2, “Inhibitors of APOL1 and methods of using same” (Vertex Pharmaceuticals Incorporated, priority 2020, dated 2024).)
